{"source": "patent US20190192458A1", "about": "“THERAPEUTIC/PROPHYLACTIC AGENT FOR GRAFT-VERSUS-HOST DISEASE, FIBROCYTE INVASION INHIBITOR, AND INHIBITOR AGAINST TEAR REDUCTION AND REDUCTION IN GOBLET CELLS” (KEIO UNIVERSITY, priority 2016, published 2019)", "key": {"[1]": {"test_system": "MCP-1, TNF-α, and IFN-γ in blood sera", "test": "ELISA of inflammation markers in blood sera", "type": "in vivo, mouse", "conditions": "ELISA 28 days after bone marrow transplantation; PBA-treated vs vehicle-treated mice, n=4, P<0.05", "procedure": "Bone marrow transplantation was performed as described in the above section “Bone marrow transplantation,” and the resulting allogeneic bone marrow transplantation recipient mice were divided into two groups. One group was treated with intraperitoneal injection of PBA (10 mg/kg) (Aldrich) while the other was treated with intraperitoneal injection of a solvent vehicle⋅phosphate buffered saline (PBS) (pH 7.4). The allogeneic bone marrow transplantation recipients received once-daily administration of PBA or the solvent vehicle from Day 10 to Day 27 after bone marrow transplantation. They were sacrificed on Day 28 after bone marrow transplantation.\nBlood samples were withdrawn from PBA-treated mice and vehicle-treated mice, and centrifuged at 4000 rpm for 10 minutes. The levels of MCP-1, tumor necrosis factor-α (TNF-α), and interferon-γ (IFN-γ) in the resulting blood sera were measured using ELISA kits (Becton Dickinson). These assays were performed according to the protocol recommended by manufacturer Becton Dickinson."}, "CTGF": {"test_system": "CTGF", "test": "Immunoblot analysis of fibrosis marker CTGF in organs", "type": "in vivo, mouse", "conditions": "PBA-treated vs vehicle-treated organs, n=4, P<0.05, FIG. 5B, 5C", "procedure": "Bone marrow transplantation was performed as described in the above section “Bone marrow transplantation,” and the resulting allogeneic bone marrow transplantation recipient mice were divided into two groups. One group was treated with intraperitoneal injection of PBA (10 mg/kg) (Aldrich) while the other was treated with intraperitoneal injection of a solvent vehicle⋅phosphate buffered saline (PBS) (pH 7.4). The allogeneic bone marrow transplantation recipients received once-daily administration of PBA or the solvent vehicle from Day 10 to Day 27 after bone marrow transplantation. They were sacrificed on Day 28 after bone marrow transplantation. […]\nProteins of interest were visualized by either one of the following two methods. (1) A target protein was colorimetrically detected using a BCIP/NBT substrate (Promega). […]\nThe intensity of the resulting protein band was analyzed using image processing software ImageJ. […]\nWith regard to the secondary antibody, (1) either AP-conjugated anti-mouse IgG antibody (Promega) or AP-conjugated anti-rabbit IgG antibody (Promega) was used when protein bands were chromogenically visualized; (2) HRP-conjugated anti-mouse antibody (Thermo Fisher Scientific) or HRP-conjugated anti-rabbit antibody (Thermo Fisher Scientific) was used when target proteins were detected by ECL."}}}
{"molecule": "O=C(O)CCCc1ccccc1", "note": "[PBA, 4-phenyl-n-butyric acid]", "values": [{"measurement": "protein level of IFN-γ in blood sera", "setting": "[1]", "value": "lower protein levels"}, {"measurement": "protein level of MCP-1 in blood sera", "setting": "[1]", "value": "lower protein levels"}, {"measurement": "protein level of TNF-α in blood sera", "setting": "[1]", "value": "lower protein levels"}, {"measurement": "CTGF expression in organs", "setting": "CTGF", "value": "overexpressed in the vehicle-treated organs, but not in the PBA-treated organs"}]}
